The RepoRT retention time repository

Experiment: HILIC, Waters ACQUITY UPLC BEH Amide, 100 × 2.1 mm, 1.7 µm; A: water + 0.125% formic acid + 10 mM ammonium formate; B: 5% water + 95% acetonitrile + 0.125% formic acid + 10 mM ammonium formate; gradient (min/%B) 0/100 2/100 7.7/70 9.5/40 10.25/30 12.75/100 17/100
Details: stereoisomer not certain

Row | SMILES | LC retention time [min]
1 | CC(C)C1=CC2=CCC3C(C)(C(=O)O)CCCC3(C)C2CC1 (stereo not given) [Abietic acid] | 1.11
2 | Oc1cc(O)cc(O)c1 [Phloroglucinol] | 1.15
3 | NC(=O)NC(CCC(=O)O)C(=O)O (stereo not given) [Ureidoglutaric acid] | 7.8
4 | NC(CCSSCCC(N)C(=O)O)C(=O)O (stereo not given) [Homocystine] | 9.58
5 | O=C(CO)c1ccccc1 [2-Hydroxyacetophenone] | 4.36
6 | O=C(O)Cc1cccc(O)c1 [3-Hydroxyphenylacetic acid] | 1.45
7 | COc1ccc2c(c1)C13CCCCC1C(C2)N(C)CC3 (stereo not given) [Dextromethorphan] | 2.64
8 | CC(C)(C)NC(=O)C1CN(Cc2cccnc2)CCN1CC(O)CC(Cc1ccccc1)C(=O)NC1c2ccccc2CC1O (stereo not given) [Indinavir] | 2.17
9 | O=c1ccn(C2OC(COP(=O)(O)O)C(O)C2O)c(=O)[nH]1 (stereo not given) [Uridine 5'-monophosphate] | 8.97
10 | Nc1nc2c(c(=O)[nH]1)N(C=O)C(CNc1ccc(C(=O)NC(CCC(=O)O)C(=O)O)cc1)CN2 (stereo not given) [Folinic acid] | 7.92
11 | NCCCCN [Putrescine] | 9.3
12 | CC(NC(CCCN=C(N)N)C(=O)O)C(=O)O (stereo not given) [Octopine] | 10.3
13 | O=C(O)CCCCCO [6-Hydroxycaproic acid] | 1.34
14 | CC(COc1ccccc1Cc1ccccc1)N1CCCCC1 (stereo not given) [Benproperine] | 1.99
15 | Clc1ccccc1CN1CCc2sccc2C1 [Ticlopidine] | 1.12
16 | NC12CC3CC(CC(C3)C1)C2 [Amantadine] | 4.88
17 | CC(=O)NCCc1c[nH]c2ccc(O)cc12 [N-Acetyl-5-hydroxytryptamine] | 1.43
18 | CCOC(=O)N1CCC(=C2c3ccc(Cl)cc3CCc3cccnc32)CC1 [Loratadine] | 1.11
19 | NC1CCCCC1 [Cyclohexanamine] | 5.1
20 | CN=C(NC)NCCCC(N)C(=O)O (stereo not given) [SDMA] | 8.49

Row | SMILES | LC retention time [min]
21 | NC1C(O)OC(CO)C(O)C1O (stereo not given) [Galactosamine] | 8.44
22 | Cc1ncc(CO)c(C=O)c1O [Pyridoxal] | 2.18
23 | NCCC(=O)O [beta-Alanine] | 8.02
24 | CSCCC(N)C(=O)O (stereo not given) [Methionine] | 7.37
25 | COc1cc(-c2ccc(=O)[nH]n2)ccc1OC(F)F [Zardaverine] | 1.19
26 | CN=C1CN(O)C(c2ccccc2)=c2cc(Cl)ccc2=N1 [Chlordiazepoxide] | 1.35
27 | O=C(OC1CC2CC3CC(C1)N2CC3=O)c1c[nH]c2ccccc12 (stereo not given) [Dolasetron] | 1.9
28 | NCC(O)CCC(N)C(=O)O (stereo not given) [delta-Hydroxylysine] | 9.77
29 | CCOC(=O)C1C(OC(=O)c2ccccc2)CC2CCC1N2C (stereo not given) [Cocaethylene] | 2.12
30 | CCC(=O)NS(=O)(=O)c1ccc(-c2c(-c3ccccc3)noc2C)cc1 [Parecoxib] | 0.98
31 | Nc1nc2ccc(OC(F)(F)F)cc2s1 [Riluzole] | 1.03
32 | O=Cc1ccc(O)cc1 [4-Hydroxybenzaldehyde] | 1.18
33 | Nc1nc2c(ncn2CCC(CO)CO)c(=O)[nH]1 [Penciclovir] | 6.71
34 | CC1CC2C3CCC4=CC(=O)C=CC4(C)C3(Cl)C(O)CC2(C)C1(O)C(=O)CO (stereo not given) [Beclomethasone] | 1.26
35 | NC(=O)C(N)Cc1c[nH]c2ccccc12 (stereo not given) [Tryptophanamide] | 5.91
36 | CC(=O)OCC(=O)NCCCOc1cccc(CN2CCCCC2)c1 [Roxane] | 3.01
37 | CCCCCCCCCCCCCCCCCC(=O)OC(CC(=O)[O-])C[N+](C)(C)C [Stearoyl-L-carnitine] | 2.96
38 | CS(=O)CCCCN=C=S (stereo not given) [Sulforaphane] | 1.14
39 | CC1CNC(=O)NC1=O (stereo not given) [5,6-Dihydro-5-methyluracil] | 1.57
40 | Cn1c(=O)c2c(ncn2C)n(C)c1=O [Caffeine] | 1.21
